Source: PubChem BioAssay (NCI)
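Compound exposure: 48 hours, 5 concentrations, 96-well plates. GI50 is the concentration that inhibits growth by half. TGI: concentration producing complete growth inhibition.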

Assays:
Assay in all cases: growth of human tumour cells (NCI), 48 h
786-0 renal = test system: 786-0 renal
A498 renal = test system: A498 renal
A549 NSCLC = test system: A549 NSCLC
ACHN renal = test system: ACHN renal
BT-549 breast = test system: BT-549 breast
CAKI-1 renal = test system: CAKI-1 renal
CCRF-CEM leukemia = test system: CCRF-CEM leukemia
COLO 205 colon = test system: COLO 205 colon
DU-145 prostate = test system: DU-145 prostate
EKVX NSCLC = test system: EKVX NSCLC
HCC-2998 colon = test system: HCC-2998 colon
HCT-116 colon = test system: HCT-116 colon
HCT-15 colon = test system: HCT-15 colon
HL-60(TB) leukemia = test system: HL-60(TB) leukemia
HOP-62 NSCLC = test system: HOP-62 NSCLC
HOP-92 NSCLC = test system: HOP-92 NSCLC
HS 578T breast = test system: HS 578T breast
HT29 colon = test system: HT29 colon
IGROV1 ovarian = test system: IGROV1 ovarian
K-562 leukemia = test system: K-562 leukemia
KM12 colon = test system: KM12 colon
M14 melanoma = test system: M14 melanoma
MALME-3M melanoma = test system: MALME-3M melanoma
MCF7 breast = test system: MCF7 breast
MDA-MB-231 breast = test system: MDA-MB-231 breast
MDA-MB-435 = test system: MDA-MB-435
MOLT-4 leukemia = test system: MOLT-4 leukemia
NCI-H226 lung = test system: NCI-H226 lung

## C#Cc1nc(C(=O)NCCC(=O)Nc2ccc(NC(=O)c3ccc(/C=C/C(=O)c4nccn4C)cc3)cc2)cs1
786-0 renal
  GI50: 0.939 µM
  TGI: 1.76 µM
A498 renal
  GI50: 7.39 µM
  TGI: 19.2 µM
A549 NSCLC
  GI50: 2.23 µM
  TGI: > 50 µM
ACHN renal
  GI50: 0.899 µM
  TGI: 1.66 µM
BT-549 breast
  GI50: 1.76 µM
  TGI: 11.3 µM
CAKI-1 renal
  GI50: 2.41 µM
  TGI: 20.1 µM
CCRF-CEM leukemia
  GI50: 0.954 µM
  TGI: 2.32 µM
COLO 205 colon
  GI50: 4.95 µM
  TGI: 47 µM
DU-145 prostate
  GI50: 2.32 µM
  TGI: > 50 µM
EKVX NSCLC
  GI50: 2.79 µM
  TGI: > 50 µM
HCC-2998 colon
  GI50: 2.14 µM
  TGI: 7.95 µM
HCT-116 colon
  GI50: 1 µM
  TGI: 2.1 µM
HCT-15 colon
  GI50: 0.85 µM
  TGI: 1.98 µM
HL-60(TB) leukemia
  GI50: 0.857 µM
  TGI: 2.53 µM
HOP-62 NSCLC
  GI50: 1.15 µM
  TGI: 2.83 µM
HOP-92 NSCLC
  GI50: 1.07 µM
  TGI: 2.78 µM
HS 578T breast
  GI50: 4.55 µM
  TGI: > 50 µM
HT29 colon
  GI50: 1.13 µM
  TGI: 2.54 µM
IGROV1 ovarian
  GI50: 0.878 µM
  TGI: 1.8 µM
K-562 leukemia
  GI50: 1.2 µM
  TGI: > 50 µM
KM12 colon
  GI50: 2.88 µM
  TGI: 32.5 µM
M14 melanoma
  GI50: 3.43 µM
  TGI: 20.8 µM
MALME-3M melanoma
  GI50: 1.4 µM
  TGI: 4.64 µM
MCF7 breast
  GI50: 1.26 µM
  TGI: 4.98 µM
MDA-MB-231 breast
  GI50: 1.13 µM
  TGI: 2.6 µM
MDA-MB-435
  GI50: 1.71 µM
  TGI: 6.79 µM
MOLT-4 leukemia
  GI50: 1.29 µM
  TGI: 3.53 µM
NCI-H226 lung
  GI50: 1.35 µM
